Converted amounts (≈) assume the structure as drawn.

Experimental findings from patent publication US5840684A, “Glycopeptide antibiotic derivatives” (Eli Lilly and Company, priority 1995, dated 1998) are described below.

For experiment [1], the system named is Staphylococcus aureus S13E. In kind it is cell-based. As for the experimental part: (§1) The MIC's were determined using a standard broth micro-dilution assay.
Experiment [2] relates to Entercoccus faecium 180-1. Kind of experiment: broth micro-dilution MIC. It counts as cell-based. As for the experimental part:
as §1

The next experiment has as its system Entercoccus faecium 276. Kind of experiment: broth micro-dilution MIC. In kind it is cell-based. As for the experimental part: as §1
For orientation: Dilution methods test growth across graded concentrations, often in twofold steps.

For experiment [3], the system named is Staphylococcus aureus 447. Put plainly: broth micro-dilution MIC. In kind it is cell-based. As for the experimental part:
as §1

The test system of experiment [4] is Staphylococcus aureus SA1199. Kind of experiment: broth micro-dilution MIC. In kind it is cell-based. The procedure:
as §1

The subject of experiment [5] is Staphylococcus aureus X778. Put plainly: broth micro-dilution MIC. In kind it is cell-based. The procedure:
as §1

The subject of experiment [6] is Streptococcus pyogenes C203. Kind of experiment: broth micro-dilution MIC. It counts as cell-based. The procedure:
as §1

The subject of another experiment is Entercoccus faecium 180. Kind of experiment: broth micro-dilution MIC. In kind it is cell-based. Conditions: Entercoccus faecium 180. As for the experimental part:
(§2) The formula I compounds have in vitro and in vivo activity against Gram-positive pathogenic bacteria. The MIC's were determined using a standard broth micro-dilution assay.

The test system of the next experiment is Entercoccus faecium 2041. Put plainly: broth micro-dilution MIC. In kind it is cell-based. Conditions: Entercoccus faecium 2041. The procedure:
as §2

Experiment [7] has as its system Enterococcus gallinarum 245. Put plainly: broth micro-dilution MIC. It counts as cell-based. Conditions: Enterococcus gallinarum 245. The procedure: as §2
Experiment [8] has as its system Haemophilus influenzae RD. Put plainly: broth micro-dilution MIC. Particulars: Haemophilus influenzae RD. In kind it is cell-based. The procedure:
as §2

The test system of experiment [9] is Staphylococcus epidermidis 270. Kind of experiment: broth micro-dilution MIC. It counts as cell-based. The procedure: as §2
In experiment [10] the test system is Staphylococcus haemolyticus 105. Kind of experiment: broth micro-dilution MIC. In kind it is cell-based. The procedure:
as §2

Experiment [11] relates to Staphylococcus haemolyticus 415. Kind of experiment: broth micro-dilution MIC. It counts as cell-based. As for the experimental part:
as §2

Experiment [12] relates to Streptococcus pneumoniae P1. Kind of experiment: broth micro-dilution MIC. It counts as cell-based. The procedure: as §2
Experiment [13] relates to vancomycin-resistant enterococci. Kind of experiment: broth micro-dilution, mean geometric MIC. Particulars: enterococci, 24-hour incubation. In kind it is cell-based, Enterococcus faecium and Enterococcus faecalis.
The subject of experiment [14] is vancomycin-susceptible enterococci. Put plainly: broth micro-dilution, mean geometric MIC. Particulars: enterococci, 24-hour incubation. In kind it is cell-based, Enterococcus faecium and Enterococcus faecalis.
Experiment [15] deals with Staphylococcus aureus SA1199B. It counts as cell-based. The procedure: as §1
The test system of experiment [16] is Staphylococcus aureus 446. Put plainly: broth micro-dilution MIC. It counts as cell-based. As for the experimental part: as §1
The subject of experiment [17] is Staphylococcus aureus SA1199A. Put plainly: broth micro-dilution MIC. In kind it is cell-based. The procedure:
as §1

In the case of `CNC(CC(C)C)C(=O)NC1C(=O)NC(CC(N)=O)C(=O)NC2C(=O)NC3C(=O)NC(C(=O)NC(C(=O)O)c4cc(O)cc(O)c4-c4cc3ccc4O)C(OC3CC(C)(N)C(O)C(C)O3)c3ccc(c(Cl)c3)Oc3cc2cc(c3OC2OC(CO)C(O)C(O)C2OC2CC(C)(NCc3ccc(-c4ccc(C)cc4)cc3C)C(O)C(C)O2)Oc2ccc(cc2Cl)C1O` (centres unmarked) [Compound 222], the MIC is at most 0.06 µg/mL in experiment [1]; at most 0.06 µg/mL in [2]; at most 0.06 µg/mL in the experiment on Entercoccus faecium 276; 0.5 µg/mL (≈ 0.28 µM) in [3]; 1 µg/mL (≈ 0.56 µM) in [4]; at most 0.06 µg/mL in experiment [5]. The MIC in experiment [6] was at most 0.06 µg/mL; against Entercoccus faecium 180 it was at most 0.06 µg/mL; against Entercoccus faecium 2041 it was at most 0.06 µg/mL; in experiment [7], 1 µg/mL (≈ 0.56 µM); in experiment [8], 32 µg/mL (≈ 17.9 µM); in experiment [9], 0.5 µg/mL (≈ 0.28 µM). Moreover, the MIC in [10] was 1 µg/mL (≈ 0.56 µM); in [11], 1 µg/mL (≈ 0.56 µM); in [12] it was at most 0.06 µg/mL. The “mean geometric MIC, Vancomycin Resistant Strains” value in [13] was determined as 0.84 µg/mL. In addition, in experiment [14], the “mean geometric MIC, Vancomycin Sensitive Strains” value was determined as 0.072 µg/mL.

In the case of `CNC(CC(C)C)C(=O)NC1C(=O)NC(CC(N)=O)C(=O)NC2C(=O)NC3C(=O)NC(C(=O)NC(C(=O)O)c4cc(O)cc(O)c4-c4cc3ccc4O)C(OC3CC(C)(N)C(O)C(C)O3)c3ccc(c(Cl)c3)Oc3cc2cc(c3OC2OC(CO)C(O)C(O)C2OC2CC(C)(NCc3ccc(N(C)c4ccccc4)cc3)C(O)C(C)O2)Oc2ccc(cc2Cl)C1O` (centres unmarked) [Compound 178], the MIC in experiment [1] was 0.5 µg/mL (≈ 0.28 µM); in [15], 1 µg/mL (≈ 0.559 µM); in [2], at most 0.06 µg/mL; in the experiment on Entercoccus faecium 276 it was 0.5 µg/mL (≈ 0.28 µM); in experiment [16] it was 1 µg/mL (≈ 0.559 µM); in [3], 0.5 µg/mL (≈ 0.28 µM). For the same molecule, the MIC in experiment [17] was at most 0.06 µg/mL; in experiment [4], 1 µg/mL (≈ 0.559 µM); in experiment [5], 1 µg/mL (≈ 0.559 µM); in experiment [6], at most 0.06 µg/mL; with Entercoccus faecium 180 it was 0.25 µg/mL (≈ 0.14 µM); with Entercoccus faecium 2041 it was at most 0.06 µg/mL. Moreover, the MIC is 2 µg/mL (≈ 1.12 µM) in experiment [7]; 4 µg/mL (≈ 2.24 µM) in [8]; 0.25 µg/mL (≈ 0.14 µM) in experiment [9]; 1 µg/mL (≈ 0.559 µM) in [10]; 2 µg/mL (≈ 1.12 µM) in experiment [11]; at most 0.06 µg/mL in experiment [12]. In addition, in [13], the “mean geometric MIC, Vancomycin Resistant Strains” value worked out at 2.8 µg/mL. Moreover, in experiment [14], the “mean geometric MIC, Vancomycin Sensitive Strains” value was found to be 0.13 µg/mL.

Take `CNC(CC(C)C)C(=O)NC1C(=O)NC(CC(N)=O)C(=O)NC2C(=O)NC3C(=O)NC(C(=O)NC(C(=O)O)c4cc(O)cc(O)c4-c4cc3ccc4O)C(OC3CC(C)(N)C(O)C(C)O3)c3ccc(c(Cl)c3)Oc3cc2cc(c3OC2OC(CO)C(O)C(O)C2OC2CC(C)(NCc3ccc(-c4cccc(C)c4)cc3)C(O)C(C)O2)Oc2ccc(cc2Cl)C1O` (centres unmarked) [Compound 224]: the MIC in [15] was 0.5 µg/mL (≈ 0.282 µM); in experiment [2], at most 0.06 µg/mL; against Entercoccus faecium 276, at most 0.06 µg/mL; in experiment [16], 0.5 µg/mL (≈ 0.282 µM); in experiment [3] it was 0.5 µg/mL (≈ 0.282 µM); in [17], at most 0.06 µg/mL. The MIC in experiment [6] is at most 0.06 µg/mL; with Entercoccus faecium 180 it was at most 0.06 µg/mL; in the experiment with Entercoccus faecium 2041, at most 0.06 µg/mL; in experiment [7] it was 0.5 µg/mL (≈ 0.282 µM); in experiment [8], 32 µg/mL (≈ 18.1 µM); in experiment [10] it was 1 µg/mL (≈ 0.564 µM). Further, the MIC is 0.5 µg/mL (≈ 0.282 µM) in experiment [11] and at most 0.06 µg/mL in [12]. For the same molecule, the “mean geometric MIC, Vancomycin Resistant Strains” value in experiment [13] came out at 0.63 µg/mL. For the same molecule, the “mean geometric MIC, Vancomycin Sensitive Strains” value in [14] is 0.055 µg/mL.
